Measured values: publication PMC5601486, “Identification of 4-phenylquinolin-2(1H)-one as a specific allosteric inhibitor of Akt” (Scientific Reports, 2017)

Experiments:
[1] = test system: RSK2(Kin.Dom.1-N-terminal); test: KINOMEscan; settings: 50000 nM
Protocol: KINOMEscan™ selectivity screen
(§1) The assay was perfor med at DiscoveRx Corporation according the methods published previously5. Briefly, Kinase-tagged T7 phage strains were grown in parallel in an E. coli host derived from the BL21 strain. E. coli were grown to log-phase and infected with T7 phage from a frozen stock and incubated with shaking at 32°C until lysis (90-150 minutes). The kinases were produced in HEK-293 cells and subsequently tagged with DNA for qPCR detection. Streptavidin-coated magnetic beads were treated with biotinylated small molecule ligands to generate affinity resins for kinase
(§2) inhibitor or DMSO control was performed in polypropylene 384-well plates for 1 hr at room temperature. After wash with PBS buffer containing 0.05% Tween 20, the beads were incubated in elution buffer (PBS containing 0.05 % Tween 20 and 0.5 μM non-biotinylated affinity ligand) for 30 minutes at room temperature. The kinase concentration in the eluates was measured by qPCR.

[2] = test system: MET(Y1235D); test: KINOMEscan; settings: 50000 nM
Protocol: KINOMEscan™ selectivity screen
(§3) Briefly, Kinase-tagged T7 phage strains were grown in parallel in an E. coli host derived from the BL21 strain. E. coli were grown to log-phase and infected with T7 phage from a frozen stock and incubated with shaking at 32°C until lysis (90-150 minutes). The kinases were produced in HEK-293 cells and subsequently tagged with DNA for qPCR detection. Streptavidin-coated magnetic beads were treated with biotinylated small molecule ligands to generate affinity resins for kinase
as §2

[3] = test system: mTORC2; test: Western blot of mTOR S2481 phosphorylation; assay type: cell-based, Mouse; settings: all concentrations tested including 80 µM
Protocol: Neuro 2A cells were seeded in 12-well plates in DMEM containing 5% FBS for 24 hr.
After overnight serum starvation (in 0% FBS DMEM), cells were incubated for 30 min at 37 °C with G7 or LY294002 or Torin 1 (Sigma Aldrich) at various concentrations, or DMSO control. IGF-1 was added to each well at a final concentration of 100 ng/mL. After 30-min incubation cells were washed with cold PBS and lysed with 50 µL lysis buffer containing 1% Triton X-100 and protease/phosphatase inhibitors (Cell Signaling Technology) or RIPA buffer (Santa Cruz Biotech). Samples were electrophoresed in 4–12% Bis-Tris gels (Life Technologies) at 150 V using MOPS SDS running buffer. Proteins were transferred electrophoretically to a PVDF or nitrocellulose membrane. For detection of cleaved […]
caspase 3 a Trans-Blot Turbo Transfer System (Bio-Rad, 25 V for 25 min) with PVDF membrane were used. […]
anti- GAPDH (14C10) antibody (#2118) (all antibodies were from Cell Signaling Technology unless indicated, 1:1000 dilution was used) at 4°C overnight, washed three times with TBS-T, then incubated with peroxidase-conjugated secondary antibody (Sigma-Aldrich) for 1 hr at room temperature. […] Band intensity was quantitated using Kodak 1D imaging analysis software. […]

[4] = test system: IRAK3; test: KINOMEscan; settings: 50000 nM
Protocol: KINOMEscan™ selectivity screen
as §3, §2

[5] = test system: EPHB4; test: KINOMEscan; settings: 50000 nM
Protocol: KINOMEscan™ selectivity screen
as §3, §2

[6] = test system: CDK7; test: KINOMEscan; settings: 50000 nM
Protocol: KINOMEscan™ selectivity screen
as §1, §2

[7] = test system: SRMS; test: KINOMEscan; settings: 50000 nM
Protocol: as §3, §2

[8] = test system: NEK5; test: KINOMEscan; settings: 50000 nM
Protocol: KINOMEscan™ selectivity screen
as §1, §2

[9] = test system: SRPK2; test: KINOMEscan; settings: 50000 nM
Protocol: KINOMEscan™ selectivity screen
The assay was perfor med at DiscoveRx Corporation according the methods published previously5. […] The kinases were produced in HEK-293 cells and subsequently tagged with DNA for qPCR detection. Streptavidin-coated magnetic beads were treated with biotinylated small molecule ligands to generate affinity resins for kinase
as §2

[10] = test system: DAPK1; test: KINOMEscan; settings: 50000 nM
Protocol: KINOMEscan™ selectivity screen
as §1, §2

[11] = test system: NEK9; test: KINOMEscan; settings: 50000 nM
Protocol: KINOMEscan™ selectivity screen
as §1, §2

[12] = test system: CTK; test: KINOMEscan; settings: 50000 nM
Protocol: KINOMEscan™ selectivity screen
as §3, §2

[13] = test system: SYK; test: KINOMEscan; settings: 50000 nM
Protocol: KINOMEscan™ selectivity screen
as §1, §2

[14] = test system: EGFR(G719S); test: KINOMEscan; settings: 50000 nM
Protocol: KINOMEscan™ selectivity screen
as §1, §2

[15] = test system: LOK; test: KINOMEscan; settings: 50000 nM
Protocol: KINOMEscan™ selectivity screen
as §1, §2

[16] = test system: PKAC-alpha; test: KINOMEscan; settings: 50000 nM
Protocol: KINOMEscan™ selectivity screen
as §3, §2

[17] = test system: PIM1; test: KINOMEscan; settings: 50000 nM
Protocol: KINOMEscan™ selectivity screen
as §1, §2

[18] = test system: ABL1(H396P)-nonphosphorylated; test: KINOMEscan; settings: 50000 nM
Protocol: KINOMEscan™ selectivity screen
as §1, §2

[19] = test system: FLT3-autoinhibited; test: KINOMEscan; settings: 50000 nM
Protocol: KINOMEscan™ selectivity screen
as §1, §2

[20] = test system: HUNK; test: KINOMEscan; settings: 50000 nM
Protocol: KINOMEscan™ selectivity screen
as §3, §2

[21] = test system: DMPK; test: KINOMEscan; settings: 50000 nM
Protocol: KINOMEscan™ selectivity screen
as §1, §2

[22] = test system: PIK3CA(H1047Y); test: KINOMEscan; settings: 50000 nM
Protocol: KINOMEscan™ selectivity screen
as §1, §2

[23] = test system: HIPK2; test: KINOMEscan; settings: 50000 nM
Protocol: KINOMEscan™ selectivity screen
as §1, §2

[24] = test system: SRPK1; test: KINOMEscan; settings: 50000 nM
Protocol: KINOMEscan™ selectivity screen
as §1, §2

[25] = test system: EPHA1; test: KINOMEscan; settings: 50000 nM
Protocol: KINOMEscan™ selectivity screen
as §1, §2

[26] = test system: T1, PFCDPK1(P.falciparum); test: KINOMEscan; assay type: binding; settings: 50000 nM
T1 construct: purchased DiscoveRx KINOMEscan

[27] = test system: EPHB2; test: KINOMEscan; settings: 50000 nM
Protocol: KINOMEscan™ selectivity screen
as §1, §2

[28] = test system: SLK; test: KINOMEscan; settings: 50000 nM
Protocol: KINOMEscan™ selectivity screen
as §1, §2

[29] = test system: FLT4; test: KINOMEscan; settings: 50000 nM
Protocol: KINOMEscan™ selectivity screen
as §1, §2

[30] = test system: MEK6; test: KINOMEscan; settings: 50000 nM
Protocol: KINOMEscan™ selectivity screen
as §1, §2

[31] = test system: NEK11; test: KINOMEscan; settings: 50000 nM
Protocol: KINOMEscan™ selectivity screen
as §3, §2

[32] = test system: ERK8; test: KINOMEscan; settings: 50000 nM
Protocol: KINOMEscan™ selectivity screen
as §1, §2

[33] = test system: TESK1; test: KINOMEscan; settings: 50000 nM
Protocol: KINOMEscan™ selectivity screen
as §1, §2

[34] = test system: FLT3(D835V); test: KINOMEscan; settings: 50000 nM
Protocol: KINOMEscan™ selectivity screen
as §1, §2

[35] = test system: DDR1; test: KINOMEscan; settings: 50000 nM
Protocol: KINOMEscan™ selectivity screen
as §1, §2

[36] = test system: MLK3; test: KINOMEscan; settings: 50000 nM
Protocol: KINOMEscan™ selectivity screen
as §1, §2

[37] = test system: SIK2; test: KINOMEscan; settings: 50000 nM
Protocol: KINOMEscan™ selectivity screen
as §3, §2

[38] = test system: ALK(L1196M); test: KINOMEscan; settings: 50000 nM
Protocol: KINOMEscan™ selectivity screen
as §1, §2

[39] = test system: ADCK4; test: KINOMEscan; settings: 50000 nM
Protocol: KINOMEscan™ selectivity screen
as §1, §2

In the case of `Oc1cc(-c2ccccc2)c2ccccc2n1` [G7, 4-phenylquinolin-2(1H)-one], the “Percent Control” value [1] is reported as 17%, the “Percent Control” value [2] is reported as 59% and the “phosphorylation of mTORC2 at S2481” value [3] is reported as “did not inhibit”. The “Percent Control” value [4] was 74%, the “Percent Control” value [5] was 92% and the “Percent Control” value [6] was 84%. For the same compound, the “Percent Control” value [7] was 88%, the “Percent Control” value [8] was 100% and the “Percent Control” value [9] was 84%. The “Percent Control” value [10] was 63%, the “Percent Control” value [11] was 80% and the “Percent Control” value [12] was 74%. For the same compound, the “Percent Control” value [13] was 95%, the “Percent Control” value [14] was 100% and the “Percent Control” value [15] was 82%. The “Percent Control” value [16] was 87%, the “Percent Control” value [17] was 49% and the “Percent Control” value [18] was 62%. The “Percent Control” value [19] was 54%, the “Percent Control” value [20] was 70% and the “Percent Control” value [21] was 100%. For the same compound, the “Percent Control” value [22] was 100%, the “Percent Control” value [23] was 63% and the “Percent Control” value [24] was 47%. The “Percent Control” value [25] was 89%, the “Percent Control” value [26] was 83% and the “Percent Control” value [27] was 93%. For the same compound, the “Percent Control” value [28] was 89%, the “Percent Control” value [29] was 72% and the “Percent Control” value [30] was 72%. The “Percent Control” value [31] was 90%, the “Percent Control” value [32] was 46% and the “Percent Control” value [33] was 100%. For the same compound, the “Percent Control” value [34] was 7.6%, the “Percent Control” value [35] was 84% and the “Percent Control” value [36] was 88%. The “Percent Control” value [37] was 78%, the “Percent Control” value [38] was 85% and the “Percent Control” value [39] was 96%.
